Measured values reported in patent US4661505A, “Leukotriene antagonists” (Eli Lilly and Company, priority 1982, dated 1987).

Assays:
Assay type in all cases: cell-based
[1] = system: SRS-A evoked ileal contractions; assay: Antagonism of crude SRS-A-evoked contraction of isolated guinea pig ileum (single concentration); conditions: Cavia porcellus, 5 min, 5 minute exposure, pyrilamine 1×10^-6 M, read-out: Percent Inhibition of SRS-A evoked ileal contractions; for inhibition at 3 µM: 3 × 10^-6 M
Experimental: (§1) Male, Hartley guinea pigs weighing 200-450 grams were killed by decapitation. A section of terminal ileum was removed, the lumen cleaned, and the tissue divided into 2.5 cm. segments. The ilea were mounted in 10 ml. tissue baths containing Krebs-bicarbonate solution of the following composition in mmoles/liter: KCl, 4.6; CaCl2.2H2 O, 1.2; KH2 PO4, 1.2; MgSO4.7H2 O, 1.2; NaCl, 118.2; NaHCO3, 24.8 and dextrose, 10.0. The bath fluid was maintained at 37° C. and aerated with 95 percent oxygen and 5 percent CO2. In addition, the buffer contained 1×10^-6 M atropine to reduce ileal spontaneous activity. In studies with crude SRS-A, 1×10^-6M pyrilamine was used to mitigate the actions of histamine present along with the biologically active leukotrienes. Isometric measurements were made with a Grass FTO3C force-displacement transducer and recorded on a Grass polygraph as change in grams of force. A passive force of 0.5 g. was applied to the tissues. After an appropriate equilibration period, single submaximal control responses to either SRS-A or pure LTD4 were obtained. Following a 5 minute exposure of the ileum to an experimental drug, the control concentration of SRS-A or LTD4 was added to the tissue bath. The response of the ileum to SRS-A or LTD4 in the presence of the drug was compared to the response in the absence of the drug.
(§2) *Compounds marked with an asterisk were tested using crude SRSA as the
(§3) ileumcontracting agent; all other compounds were tested using pure

[2] = target: T1, LTD4 evoked ileal contractions (Cavia porcellus, UniProt Q2NNR5); assay: Antagonism of LTD4-evoked contraction of isolated guinea pig ileum (single concentration); conditions: pure LTD4, 5 minute exposure, read-out: Percent Inhibition of LTD4 evoked ileal contractions; for inhibition at 1 µM: 1 × 10^-6 M; for inhibition at 3 µM: 3 × 10^-6 M; for inhibition at 10 µM: 1 × 10^-5 M
T1 construct: A section of terminal ileum was removed, the lumen cleaned, and the tissue divided into 2.5 cm. segments; from tissue; host or cells: terminal ileum of male Hartley guinea pigs
T1 sequence (Q2NNR5 1-340): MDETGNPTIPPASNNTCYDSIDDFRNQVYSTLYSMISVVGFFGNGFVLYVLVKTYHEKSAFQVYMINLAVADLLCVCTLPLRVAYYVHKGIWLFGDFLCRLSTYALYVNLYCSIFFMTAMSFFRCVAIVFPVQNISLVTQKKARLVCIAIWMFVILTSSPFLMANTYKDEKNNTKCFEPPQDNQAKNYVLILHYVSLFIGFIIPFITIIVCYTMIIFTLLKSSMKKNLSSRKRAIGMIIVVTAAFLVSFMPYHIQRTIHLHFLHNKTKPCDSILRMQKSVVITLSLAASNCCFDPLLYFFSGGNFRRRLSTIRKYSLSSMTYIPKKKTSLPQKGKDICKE
Experimental: as §1, §2, §3

[3] = target: T1, LTD4 evoked ileal contractions; assay: LTD4 antagonism, cumulative concentration-response curves in guinea pig ileum and trachea (pA2); conditions: 30 minute incubation with antagonist, Furchgott method
Experimental: For some of the drugs in this series a more detailed analysis of LTD4 antagonism was made. In these experiments, cumulative concentration-response curves were obtained to LTD4 in guinea pig ileum and trachea. This was followed by a 30 minute incubation with various concentrations of the experimental drug. The concentration response curve to LTD4 was then repeated in the presence of the antagonist. Only one concentration of antagonist was used on a single tissue. KB values were calculated by the method of Furchgott [Ann. N.Y. Acad. Sci., 139, 553 (1967)]using the following equation. [formula] Dose ratio refers to the concentration of agonist required to elicit 50 percent of the maximal response (ED50) in the presence of the antagonist divided by the ED50 in the absence of the antagonist. Calculations were performed with the aid of a computer and a digital plotter.

Row | SMILES | inhibition at 3 µM [1] | inhibition at 1 µM [2] | inhibition at 3 µM [2] | Kb [3] | inhibition at 10 µM [2] | inhibition at 10 µM ([1]; 1 × 10^-5 M)
1 | CC(=O)c1ccc(OC(CCCCC(=O)O)c2ccccc2)cc1O (stereo not drawn) [Example 20, 6-(4-Acetyl-3-hydroxyphenoxy)-6-phenyl-hexanoic acid] | 20% |  |  |  |  | 
2 | CCCc1c(OCCCCCCCCCCc2nnn[nH]2)ccc(C(C)=O)c1O [Example 13, 5-[10-(4-Acetyl-3-hydroxy-2-propylphenoxy)decyl]-tetrazole] |  | 76% | 93% | 316 nM |  | 
3 | CCCc1c(OCCCCCc2nnn[nH]2)ccc(C(C)=O)c1O [Example 22, 5-[5-(4-Acetyl-3-hydroxy-2-propylphenoxy)pentyl]-tetrazole] |  |  | 87% | 263 nM |  | 
4 | CCCc1c(OCCSc2nn[nH]n2)ccc(C(C)=O)c1O [Example 58, 5-[2-(4-Acetyl-3-hydroxy-2-propylphenoxy)ethanethio]-tetrazole] |  | 47% |  | 1120 nM |  | 
5 | CCCc1c(OCCCCC(=O)O)ccc(C(C)=O)c1O [Example 28, 5-(4-Acetyl-3-hydroxy-2-propylphenoxy)pentanoic acid] | 61% |  |  | 1580 nM |  | 
6 | CCCc1c(OCCCCCCCCCc2nnn[nH]2)ccc(C(C)=O)c1O [Example 12, 5-[9-(4-Acetyl-3-hydroxy-2-propylphenoxy)nonyl]-tetrazole] |  | 78% | 90% | 316 nM |  | 
7 | CCCc1c(OCCCCSc2nn[nH]n2)ccc(C(C)=O)c1O [Example 57, 5-[4-(4-Acetyl-3-hydroxy-2-propylphenoxy)butanethio]-tetrazole] |  | 87% |  | 100 nM |  | 
8 | CCCc1c(OCCCCCCCCSc2nn[nH]n2)ccc(C(C)=O)c1O [Example 73, 5-[8-(4-Acetyl-3-hydroxy-2-propylphenoxy)octanethio]-tetrazole] |  | 50% |  | 501 nM | 100% | 
9 | CCCc1c(OCCCCCSc2nn[nH]n2)ccc(C(C)=O)c1O [Example 68, 5-[5-(4-Acetyl-3-hydroxy-2-propylphenoxy)pentanethio]-tetrazole] |  | 82% |  | 158 nM | 100% | 
10 | CCCc1c(OCCCCCCc2nnn[nH]2)ccc(C(C)=O)c1O [Example 9, 5-[6-(4-Acetyl-3-hydroxy-2-propylphenoxy)hexyl]-tetrazole] |  | 87% | 100% | 79.4 nM |  | 
11 | CCCc1c(OC(C)CCCCC(=O)O)ccc(C(C)=O)c1O (stereo not drawn) [Example 40, 6-(4-Acetyl-3-hydroxy-2-propylphenoxy)heptanoic acid] |  |  | 45% | 1580 nM | 79% | 
12 | CCCc1c(OCCCCCCCCC(=O)O)ccc(C(C)=O)c1O [Example 31, 9-(4-Acetyl-3-hydroxy-2-propylphenoxy)nonanoic acid] |  | 51% |  | 2000 nM | 94% | 
13 | CCCc1c(OCCCSc2nn[nH]n2)ccc(C(C)=O)c1O [Example 59, 5-[3-(4-Acetyl-3-hydroxy-2-propylphenoxy)propanethio]-tetrazole] |  | 95% |  | 31.6 nM |  | 
14 | CCCc1c(OCCCCCC(=O)O)ccc(C(C)=O)c1O [Example 24, 6-(4-Acetyl-3-hydroxy-2-propylphenoxy)hexanoic acid] |  |  | 81% | 398 nM |  | 
15 | CC(=O)c1ccc(OCCCCCC(=O)O)cc1O [Example 25, 6-(4-Acetyl-3-hydroxyphenoxy)hexanoic acid] | 11% |  |  |  |  | 
16 | CCCc1c(OCCCCCC(=O)O)ccc(C(=O)CC)c1O [Example 34, 6-(4-Propionyl-3-hydroxy-2-propylphenoxy)hexanoic acid] |  |  | 56% | 794 nM | 88% | 
17 | CCCc1c(OCCCCCCCc2nnn[nH]2)ccc(C(C)=O)c1O [Example 10, 5-[7-(4-Acetyl-3-hydroxy-2-propylphenoxy)heptyl]-tetrazole] |  | 92% | 95% | 79.4 nM |  | 
18 | CCCc1c(OC(CCCCC(=O)O)c2ccc(-c3ccccc3)cc2)ccc(C(C)=O)c1O (stereo not drawn) [Example 17, 6-(4-Acetyl-3-hydroxy-2-propylphenoxy)-6-(4-biphenyl)hexanoic acid] |  |  |  |  |  | 44%
19 | CCCc1c(OCCCCCCCCc2nnn[nH]2)ccc(C(C)=O)c1O [Example 11, 5-[8-(4-Acetyl-3-hydroxy-2-propylphenoxy)octyl]-tetrazole] |  | 89% | 100% | 316 nM |  | 
